Experiments:
[1] = test system: bone resorption (metaphyseal BMD); experiment: Growing rat model adapted from the Schenk assay: BMD of proximal tibial metaphysis by DXA; assay type: in vivo; conditions: growing male Sprague Dawley rats, s.c. daily for 7 days
Experimental: The antiresorptive potency of OX14 was measured by its effect on increasing BMD compared to ALN, ZOL, RIS, and MIN in a growing rat model adapted from the Schenk assay.26, 27 These studies were performed at the Procter & Gamble Health Sciences Center, Mason, OH, USA from 2007 to 2010, as part of the program of screening new bisphosphonates. Male Sprague Dawley rats (6 weeks old, weighing 120 to 150 g) were randomized into groups (n = 6) based on body weight. All groups received treatment by subcutaneous (s.c.) injection at the same time daily for 7 days. The first treatment was on day 0, and the last treatment on day 6, with animals euthanized by cervical dislocation on day 7. BMD of the proximal metaphysis of the right tibia was analyzed using dual‐energy X‐ray analysis (DXA) using a Hologic QDR‐4500 densitometer (Hologic, Inc., Waltham, MA, USA). Efficacy of each bisphosphonate was expressed as percentage change from the vehicle control group. The dose that increased BMD 20% greater than the control was determined via a logistic dose‐response relationship (SAS Institute, Inc., Cary, NC, USA), which estimates an efficacy value using animals in the study, and for comparison of bisphosphonates across studies. Data from compounds run in multiple studies was averaged.

[2] = Mineral binding affinity: elution from hydroxyapatite (HAP) columns by FPLC; assay type: physicochemical; conditions: HAP column, mean ± SE
[3] = Short-term (24-hour) skeletal retention based on urinary excretion after i.v. dosing; assay type: in vivo, Sprague Dawley rats; conditions: for Percentage of the dose excreted in urine over 24 hours / Skeletal retention (% of administered dose): rats, i.v.; for Percentage of the dose excreted in urine over 24 hours: 0 to 24 hours, mean ± standard deviation, averaged from all studies; for Skeletal retention (% of administered dose): calculated as dose administered minus urinary excretion over 24 hours
[4] = test system: bone (BV/TV, osteoclasts, osteoblasts); experiment: In vivo OX14 dose response study in non-tumor-bearing mice (µCT and histomorphometry of tibias); set-up: species or system C57BL/6J mice
Experimental: Tibias were then assessed by μCT and histological analyzes as described below (see Assessment of bone integrity). […] Bruker) and analyzed using CTAn (v. 1.12; Bruker). The number and area of cortical bone lesions (pixels^2) were assessed by taking the μCT datasets, removing the trabecular bone and then volume-rendering the datasets to create 3D models using […] (version 1.0; ANUVizlab, Canberra, Australia), followed by analysis of three different sides of the bone using ImageJ software (version 1.47; NIH, Bethesda, MD, USA; https://imagej.nih.gov/ij/). After decalcification, wax embedding, and sectioning of the tibias, the numbers of osteoclasts (following tartrate-resistant acid phosphatase [TRAP] staining) were assessed using OsteoMeasure Advanced Bone Histomorphometry Video System (Osteometrics, Inc., Decatur, GA, USA) and standard histomorphometric methods.28

[5] = Adverse side effects observed across all in vivo studies; set-up: species or system rats and mice
Excerpt: Sprague Dawley rats, C57BL/6J and NOD/SCID‐γ (NSG, NOD.Cg‐Prkdcscid Il2rgtm1Wjl/SzJ) mice were purchased from Charles River Laboratories (Wilmington, MA, USA/Margate, UK). All animals were housed in cages under standard conditions (12‐hour light/dark cycle). NSG mice were housed in specific‐pathogen‐free conditions. All animals were healthy and pathogen‐free at the start of each study and once each study had commenced they were monitored daily for any unexpected adverse effects. […] Similar calculations were used to determine group numbers in non–tumor‐bearing animals based on previously observed changes in bone (BMD or trabecular bone fraction [BV/TV]).

[6] = test system: experimentally induced inflammatory colitis; set-up: method as in earlier work; conditions: cited from earlier work
[7] = test system: JJN3 myeloma cells in NSG mice; experiment: JJN3-NSG murine model of myeloma-induced bone disease; assay type: in vivo; conditions: for Osteoclast number (cortico-endosteal surface) / Cortical bone lesions by μCT / Osteolytic disease by μCT / Tumor burden by flow cytometric analysis of femoral bone marrow flushes / BV/TV by μCT: ZOL 28.4, OX14 23 µg P/kg s.c. 2×/week; for Osteoclast number (cortico-endosteal surface): tumor mice; for Cortical bone lesions by μCT / Osteolytic disease by μCT / BV/TV by μCT: vs tumor control; for BV/TV by μCT: tumor-bearing mice
Experimental: Female NSG mice (7 to 8 weeks old, weighing 19 to 23 g) were randomized based on weight into four groups (n = 8/group). Group 1 was a non–tumor‐bearing control group (naive). Groups 2 to 4 were injected via the tail vein with 1 × 10^6 JJN3 cells and then treated twice a week s.c. from the time of tumor cell injection for the duration of the study with vehicle control (PBS, group 2), ZOL (28.4 µg P/kg, group 3), or OX14 (23 µg P/kg, group 4). At the first signs of morbidity (after 3 weeks) all animals were anesthetized ([…] and 2% oxygen by inhalation) for cardiac bleeding and euthanized by cervical dislocation. Bone disease and tumor burden were assessed as described below (see Analysis of tumour burden).
At euthanasia, the right tibias were dissected free of soft tissue and fixed in 10% formalin before µCT analysis was used to measure the percentage of BV/TV. Tibias were scanned on a Skyscan 1272 (Bruker, Kontich, Belgium) at 4.3 μm with a 0.7‐degree rotation step, reconstructed using NRecon (v. 1.6.9.4; Bruker) and analyzed using CTAn (v. 1.12; Bruker). The number and area of cortical bone lesions (pixels^2) were assessed by taking the µCT datasets, removing the trabecular bone and then volume‐rendering the datasets to create 3D models using Drishti (version 1.0; ANUVizlab, Canberra, Australia), followed by analysis of three different sides of the bone using ImageJ software (version 1.47; NIH, Bethesda, MD, USA; https://imagej.nih.gov/ij/). After decalcification, wax embedding, and sectioning of the tibias, the numbers of osteoclasts (following tartrate‐resistant acid phosphatase [TRAP] staining) were assessed using OsteoMeasure Advanced Bone Histomorphometry Video System (Osteometrics, Inc., Decatur, GA, USA) and standard histomorphometric methods.28
Tumor burden was assessed on sections of tibias that had been stained with hematoxylin and eosin, where the distinct morphology of the myeloma cells distinguishes them from normal marrow. The proportion of bone marrow occupied by the myeloma cells was assessed using OsteoMeasure and expressed as a percentage of the whole bone section area as described.22 Tumor burden was also assessed in bone marrow flushes of the left femora by flow cytometry using an anti‐human HLA‐ABC‐APC antibody and an isotype‐matched control (R&D Systems, Minneapolis, MN, USA) as described.29, 30

SMILES | Dose required to increase BMD by 20% greater than control [1] | HAP affinity (mean retention time/min) [2] | Percentage of the dose excreted in urine over 24 hours [3] | Skeletal retention (% of administered dose) [3] | Osteoclast number (cortico-endosteal surface) [7] | Cortical bone lesions by μCT [7] | Osteolytic disease by μCT [7] | Tumor burden by flow cytometric analysis of femoral bone marrow flushes ([7]; vs tumor control (JJN3)) | BV/TV by μCT [7] | also measured
NCCCC(O)(P(=O)(O)O)P(=O)(O)O [Alendronate, alendronate] | 1.52 μg P/kg |  |  |  |  |  |  |  |  | 
O=P(O)(O)C(O)(Cc1cnc2ccccn12)P(=O)(O)O [Minodronate, minodronate] | 0.11 μg P/kg | 10.33 ± 0.18 min | 44.80% ± 1.6 | 55.2 ± 1.6 % of administered dose |  |  |  |  |  | 
O=P(O)(O)C(F)(Cc1cnc2ccccn12)P(=O)(O)O [OX14, 1‐fluoro‐2‐(imidazo‐[1,2‐α]pyridin‐3‐yl)‐ethyl‐bisphosphonate] | 0.30 μg P/kg | 6.17 ± 0.08 min | 52.85% ± 3.82 | 47.15 ± 3.82 % of administered dose | significant reduction in osteoclast number | significantly reduced | prevented the osteolytic disease | no significant reduction in tumor burden | significantly higher | BV/TV by μCT ([4]; OX14 23 µg P/kg s.c. 2×/week, 3 weeks, vs vehicle): increased BV/TV; BV/TV by μCT ([4]; OX14 2.3 and 0.23 µg P/kg s.c. 2×/week, 3 weeks, vs vehicle): not significantly different from the vehicle control group; Osteoclast perimeter on the trabecular bone perimeter ([4]; OX14 2.3 and 0.23 µg P/kg, vs vehicle control): neither of the lower doses of OX14 produced significant reductions; Adverse side effects (loss or gain of weight, liver toxicity, or death) [5]: no adverse side effects; Prevention of experimentally induced inflammatory colitis [6]: effectiveness in preventing experimentally induced inflammatory colitis; Tumor burden (overall statement) ([7]; OX14 23 µg P/kg s.c. 2×/week): not to reduce tumor burden
O=P(O)(O)C(O)(Cc1cccnc1)P(=O)(O)O [Risedronate, risedronate] | 0.45 μg P/kg | 9.97 ± 0.18 min | 34.91% ± 9.3 | 65.1 ± 9.31 % of administered dose |  |  |  |  |  | % excretion (urine, 24 h) ([3]; RIS co-dosed with MIN or OX14): 32.5 ± 0.1%; % excretion (urine, 24 h) ([3]; RIS co-dosed with equal or greater amounts of ALN or ZOL): 43.2 ± 2.6%; % excretion (urine, 24 h) ([3]; RIS dose 0.1 mg): 38.1 ± 5.6%; % excretion (urine, 24 h) ([3]; RIS dose 0.5 mg): 45.1 ± 1.0%; % excretion (urine, 24 h) ([3]; RIS dose 1 mg): 43.0 ± 1.8%
O=P(O)(O)C(O)(Cn1ccnc1)P(=O)(O)O [Zoledronate, zoledronate] | 0.08 μg P/kg | 12.53 ± 0.1 min | 27.95% ± 3.18 | 72.05 ± 3.18 % of administered dose | significant reduction in osteoclast number | significantly reduced | prevented the osteolytic disease | no significant reduction in tumor burden | significantly higher | Number of osteoblasts on the trabecular bone surface ([4]; ZOL 28.4 µg P/kg s.c. 2×/week, 3 weeks, vs vehicle): significant reduction in osteoblasts; Tumor burden by histological analysis of tibias ([7]; 28.4 µg P/kg ZOL s.c. 2×/week, vs tumor control (JJN3)): significant reduction in tumor burden
